Test results: US10695342B2, “Methods and compositions for preventing opioid abuse” (Albany Molecular Research, Inc., priority 2015, dated 2020)
“And” between values parts separate entries of the source, which are not always exact repeats. Equal entries are not always repeated. Structures can show the parent of a compound that is named as a salt.

Columns and labels:
[1] = Oral gavage pharmacokinetics in rats, plasma oxycodone by LC-MS/MS; conditions: 0.89 mg/kg oral, rat; for Plasma Concentration (oxycodone), Mean: mean of the N quantifiable subjects
[2] = Oral gavage pharmacokinetics in rats, plasma oxymorphone by LC-MS/MS; conditions: for concentration at 0.25 h / concentration at 0.5 h / concentration at 1 h / concentration at 2 h / concentration at 3 h / concentration at 4 h / concentration at 6 h: oral, Plasma oxymorphone
[3] = Dissolution of test article in dosing formulation; conditions: Ex No. B1a, 6.72 mg/kg group, 0.5% methylcellulose vehicle, equivalent to 2 mg/mL oxymorphone HCl
[4] = 1.77 mg/kg Oxymorphone HCl oral, rat, hydrochloride

COc1ccc2c3c1O[C@H]1C(OC(=O)C[C@H](OC(=O)C[C@H](O)C(=O)O)C(=O)O)=CC[C@@]4(O)[C@@H](C2)N(C)CC[C@]314 [Oxycodone Dimalate, (S)-4-((S)-1-Carboxy-3-(((4R,4aS,7aR,12bS)-4a-hydroxy-9-methoxy-3-methyl-2,3,4,4a,5,7a-hexahydro-1H-4,12-methanobenzofuro[3,2-e]isoquinolin-7-yl)oxy)-3-oxopropoxy)-2-hydroxy-4-oxobutanoic acid trifluoroacetic acid salt]
Plasma Concentration (oxycodone) by Subject ([1]; 0.25 h): BLQ | Plasma Concentration (oxycodone), Mean ([1]; 0.25 h): BLQ | Plasma Concentration (oxycodone) by Subject ([1]; 0.5 h): BLQ | Plasma Concentration (oxycodone), Mean ([1]; 0.5 h): BLQ | Plasma Concentration (oxycodone) by Subject ([1]; 2 h): BLQ | Plasma Concentration (oxycodone), Mean ([1]; 2 h): BLQ | Plasma Concentration (oxycodone) by Subject ([1]; 3 h): BLQ | Plasma Concentration (oxycodone), Mean ([1]; 3 h): BLQ | Plasma Concentration (oxycodone) by Subject ([1]; 4 h): BLQ | Plasma Concentration (oxycodone), Mean ([1]; 4 h): BLQ | Plasma Concentration (oxycodone) by Subject ([1]; 6 h): BLQ | Plasma Concentration (oxycodone), Mean ([1]; 6 h): BLQ

COc1ccc2c3c1O[C@H]1C(=O)CC[C@@]4(O)[C@@H](C2)N(C)CC[C@]314.Cl [Oxycodone HCl, oxycodone HCl]
Plasma Concentration (oxycodone) by Subject ([1]; 2 h): BLQ | Plasma Concentration (oxycodone), Mean ([1]; 2 h): BLQ | Plasma Concentration (oxycodone) by Subject ([1]; 3 h): BLQ | Plasma Concentration (oxycodone), Mean ([1]; 3 h): BLQ | Plasma Concentration (oxycodone) by Subject ([1]; 4 h): BLQ | Plasma Concentration (oxycodone), Mean ([1]; 4 h): BLQ | Plasma Concentration (oxycodone) by Subject ([1]; 6 h): BLQ | Plasma Concentration (oxycodone), Mean ([1]; 6 h): BLQ

COc1ccc2c3c1O[C@H]1C(OC(=O)[C@H](C)O)=CC[C@@]4(O)[C@@H](C2)N(C)CC[C@]314 [Oxycodone Lactate, (S)-(4R,4aS,7aR,12bS)-4a-Hydroxy-9-methoxy-3-methyl-2,3,4,4a,5,7a-hexahydro-1H-4,12-methanobenzofuro[3,2-e]isoquinolin-7-yl 2-hydroxypropanoate trifluoroacetic acid salt]
Plasma Concentration (oxycodone) by Subject ([1]; 6 h): BLQ | Plasma Concentration (oxycodone), Mean ([1]; 6 h): BLQ

COc1ccc2c3c1O[C@H]1C(OC(=O)C[C@H](O)C(=O)O)=CC[C@@]4(O)[C@@H](C2)N(C)CC[C@]314.Cl [Oxycodone Malate, (S)-2-Hydroxy-4-(((4R,4aS,7aR,12bS)-4a-hydroxy-9-methoxy-3-methyl-2,3,4,4a,5,7a-hexahydro-1H-4,12-methanobenzofuro[3,2-e]isoquinolin-7-yl)oxy)-4-oxobutanoic acid hydrochloride]
Plasma Concentration (oxycodone) by Subject ([1]; 6 h): BLQ | Plasma Concentration (oxycodone), Mean ([1]; 6 h): BLQ

COc1ccc2c3c1O[C@H]1C(OC(=O)[C@H](O)c4ccccc4)=CC[C@@]4(O)[C@@H](C2)N(C)CC[C@]314 [Oxycodone Mandelate, (R)-(4R,4aS,7aR,12bS)-4a-Hydroxy-9-methoxy-3-methyl-2,3,4,4a,5,7a-hexahydro-1H-4,12-methanobenzofuro[3,2-e]isoquinolin-7-yl 2-hydroxy-2-phenylacetate trifluoroacetic acid salt]
Plasma Concentration (oxycodone) by Subject ([1]; 4 h): BLQ | Plasma Concentration (oxycodone), Mean ([1]; 4 h): BLQ | Plasma Concentration (oxycodone) by Subject ([1]; 6 h): BLQ | Plasma Concentration (oxycodone), Mean ([1]; 6 h): BLQ

CCCCCCCC/C=C\CCCCCCCC(=O)OC1=CC[C@@]2(O)[C@H]3Cc4ccc(OC)c5c4[C@@]2(CCN3C)[C@H]1O5.Cl [Oxycodone Oleate, (4R,4aS,7aR,12bS)-4a-Hydroxy-9-methoxy-3-methyl-2,3,4,4a,5,7a-hexahydro-1H-4,12-methanobenzofuro[3,2-e]isoquinolin-7-yl oleate hydrochloride]
Plasma Concentration (oxycodone) by Subject ([1]; 4 h): BLQ | Plasma Concentration (oxycodone), Mean ([1]; 4 h): BLQ

CN1CC[C@]23c4c5ccc(O)c4O[C@H]2C(=O)CC[C@@]3(O)[C@H]1C5 [Oxymorphone HCl, oxymorphone hydrochloride]
Plasma oxymorphone, individual rats ([2]; 1.77 mg/kg Oxymorphone HCl oral, rat, 0.25 h, hydrochloride): 0.379 ng/mL and 0.862 ng/mL and 1.144 ng/mL | Plasma oxymorphone, individual rats ([2]; 1.77 mg/kg Oxymorphone HCl oral, rat, 0.5 h, hydrochloride): 0.343 ng/mL and 0.925 ng/mL and 0.799 ng/mL | Plasma oxymorphone, individual rats ([2]; 1.77 mg/kg Oxymorphone HCl oral, rat, 1 h, hydrochloride): 0.545 ng/mL and 1.557 ng/mL and 1.110 ng/mL | Plasma oxymorphone, individual rats ([2]; 1.77 mg/kg Oxymorphone HCl oral, rat, 2 h, hydrochloride): 0.728 ng/mL and 1.826 ng/mL and 0.621 ng/mL | Plasma oxymorphone, individual rats ([2]; 1.77 mg/kg Oxymorphone HCl oral, rat, 3 h, hydrochloride): 0.676 ng/mL and BQL (BQL: <0.200 ng/mL) | Plasma oxymorphone, individual rats ([2]; 1.77 mg/kg Oxymorphone HCl oral, rat, 4 h, hydrochloride): 0.429 ng/mL and BQL (BQL: <0.200 ng/mL) | Plasma oxymorphone, individual rats ([2]; 1.77 mg/kg Oxymorphone HCl oral, rat, 6 h, hydrochloride): BQL (BQL: <0.200 ng/mL) | Cmax of plasma oxymorphone, individual rats [2, 4]: 0.728 ng/mL and 1.826 ng/mL and 1.144 ng/mL | Tmax of plasma oxymorphone, individual rats [2, 4]: 2.00 h (2×) and 0.25 h | Plasma oxymorphone, individual rats ([2]; 3.54 mg/kg Oxymorphone HCl oral, rat, 0.25 h, hydrochloride): 4.958 ng/mL and 3.246 ng/mL and 1.767 ng/mL | Plasma oxymorphone, individual rats ([2]; 3.54 mg/kg Oxymorphone HCl oral, rat, 0.5 h, hydrochloride): 4.716 ng/mL and 2.469 ng/mL and 2.095 ng/mL | Plasma oxymorphone, individual rats ([2]; 3.54 mg/kg Oxymorphone HCl oral, rat, 1 h, hydrochloride): 3.423 ng/mL and 2.146 ng/mL and 0.913 ng/mL | Plasma oxymorphone, individual rats ([2]; 3.54 mg/kg Oxymorphone HCl oral, rat, 2 h, hydrochloride): 2.434 ng/mL and 1.639 ng/mL | Plasma oxymorphone, individual rats ([2]; 3.54 mg/kg Oxymorphone HCl oral, rat, 3 h, hydrochloride): 0.577 ng/mL and 1.635 ng/mL and 1.276 ng/mL | Plasma oxymorphone, individual rats ([2]; 3.54 mg/kg Oxymorphone HCl oral, rat, 4 h, hydrochloride): 0.545 ng/mL and 0.618 ng/mL | Plasma oxymorphone, individual rats ([2]; 3.54 mg/kg Oxymorphone HCl oral, rat, 6 h, hydrochloride): 0.796 ng/mL and 0.774 ng/mL | concentration at 0.25 h ([2]; male, Sprague Dawley, rat, plasma, 1.77 mg/kg, Mean, 1.77 mg/kg Oxymorphone HCl oral, 0.25 h): 0.795 ng/mL | concentration at 0.5 h ([2]; male, Sprague Dawley, rat, plasma, 1.77 mg/kg, Mean, 1.77 mg/kg Oxymorphone HCl oral, 0.5 h): 0.689 ng/mL | concentration at 1 h ([2]; male, Sprague Dawley, rat, plasma, 1.77 mg/kg, Mean, 1.77 mg/kg Oxymorphone HCl oral, 1 h): 1.07 ng/mL | concentration at 2 h ([2]; male, Sprague Dawley, rat, plasma, 1.77 mg/kg, Mean, 1.77 mg/kg Oxymorphone HCl oral, 2 h): 1.06 ng/mL | concentration at 3 h ([2]; male, Sprague Dawley, rat, plasma, 1.77 mg/kg, Mean, 1.77 mg/kg Oxymorphone HCl oral, 3 h): 0.378 ng/mL | concentration at 4 h ([2]; male, Sprague Dawley, rat, plasma, 1.77 mg/kg, Mean, 1.77 mg/kg Oxymorphone HCl oral, 4 h): 0.312 ng/mL | concentration at 6 h ([2]; male, Sprague Dawley, rat, plasma, 1.77 mg/kg, Mean, 1.77 mg/kg Oxymorphone HCl oral, 6 h): 0.6 ng/mL | concentration at 3 h ([2]; male, Sprague Dawley, rat, plasma, 1.77 mg/kg, individual rats, 1.77 mg/kg Oxymorphone HCl oral, 3 h): 0.457 ng/mL | concentration at 4 h ([2]; male, Sprague Dawley, rat, plasma, 1.77 mg/kg, individual rats, 1.77 mg/kg Oxymorphone HCl oral, 4 h): 0.508 ng/mL | concentration at 6 h ([2]; male, Sprague Dawley, rat, plasma, 1.77 mg/kg, individual rats, 1.77 mg/kg Oxymorphone HCl oral, 6 h): 1.8 ng/mL | concentration at 0.25 h ([2]; male, Sprague Dawley, rat, plasma, 3.54 mg/kg, Mean, 3.54 mg/kg Oxymorphone HCl oral, 0.25 h): 3.32 ng/mL | concentration at 0.5 h ([2]; male, Sprague Dawley, rat, plasma, 3.54 mg/kg, Mean, 3.54 mg/kg Oxymorphone HCl oral, 0.5 h): 3.09 ng/mL | concentration at 1 h ([2]; male, Sprague Dawley, rat, plasma, 3.54 mg/kg, Mean, 3.54 mg/kg Oxymorphone HCl oral, 1 h): 2.16 ng/mL | concentration at 2 h ([2]; male, Sprague Dawley, rat, plasma, 3.54 mg/kg, Mean, 3.54 mg/kg Oxymorphone HCl oral, 2 h): 1.78 ng/mL | concentration at 3 h ([2]; male, Sprague Dawley, rat, plasma, 3.54 mg/kg, Mean, 3.54 mg/kg Oxymorphone HCl oral, 3 h): 1.16 ng/mL | concentration at 4 h ([2]; male, Sprague Dawley, rat, plasma, 3.54 mg/kg, Mean, 3.54 mg/kg Oxymorphone HCl oral, 4 h): 0.499 ng/mL | concentration at 6 h ([2]; male, Sprague Dawley, rat, plasma, 3.54 mg/kg, Mean, 3.54 mg/kg Oxymorphone HCl oral, 6 h): 0.674 ng/mL | concentration at 2 h ([2]; male, Sprague Dawley, rat, plasma, 3.54 mg/kg, individual rats, 3.54 mg/kg Oxymorphone HCl oral, 2 h): 1.27 ng/mL | concentration at 4 h ([2]; male, Sprague Dawley, rat, plasma, 3.54 mg/kg, individual rats, 3.54 mg/kg Oxymorphone HCl oral, 4 h): 0.335 ng/mL | concentration at 6 h ([2]; male, Sprague Dawley, rat, plasma, 3.54 mg/kg, individual rats, 3.54 mg/kg Oxymorphone HCl oral, 6 h): 0.453 ng/mL | Cmax ([2]; male, Sprague Dawley, rat, plasma, po, 1.77 mg/kg, Cmax of plasma oxymorphone, Mean, 1.77 mg/kg Oxymorphone HCl oral): 1.23 ng/mL | Tmax ([2]; male, Sprague Dawley, rat, plasma, po, 1.77 mg/kg, Tmax of plasma oxymorphone, Mean, 1.77 mg/kg Oxymorphone HCl oral): 1.42 h

CN1CC[C@]23c4c5ccc(O)c4O[C@H]2C(OC(=O)[C@@H](O)c2ccccc2)=CC[C@@]3(O)[C@H]1C5.Cl [Oxymorphone Mandelate]
Solubility of test article in dosing formulation [3]: (not completely soluble)

CCCCCCCC/C=C\CCCCCCCC(=O)OC1=CC[C@@]2(O)[C@H]3Cc4ccc(O)c5c4[C@@]2(CCN3C)[C@H]1O5 [Oxymorphone Oleate, trifluoroacetic acid salt]
Plasma oxymorphone, individual rats ([2]; 7.12 mg/kg oral, Ex No. B3, rat, 0.25 h, trifluoroacetic acid salt): BQL (BQL: <0.200 ng/mL) | Plasma oxymorphone, individual rats ([2]; 7.12 mg/kg oral, Ex No. B3, rat, 0.5 h, trifluoroacetic acid salt): BQL (BQL: <0.200 ng/mL) | Plasma oxymorphone, individual rats ([2]; 7.12 mg/kg oral, Ex No. B3, rat, 2 h, trifluoroacetic acid salt): BQL (BQL: <0.200 ng/mL)
